In data set [1] the target is Factor XIa (Homo sapiens (Human), UniProt P03951). Nature of the data set: Factor XIa enzyme inhibition assay (dose response, fluorogenic AMC substrate). The data set is classed as biochemical. To be noted: read-out: hFXIa IC50. The method, boiled down:
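Fluorogenic progress curves (30 min, 1-min reads, 30° C) were recorded for 0.25 nM FXIa cleaving 50 μM Glp-Pro-Arg-AMC in Hepes pH 7.4 buffer with NaCl and Tween 20. Compounds were serially two-fold diluted, and IC50 was fitted with a Hill equation.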

Data set [2] deals with Factor Xa (Homo sapiens (Human), UniProt P00742). Nature of the data set: Dose response assay for protease inhibitors: Factor Xa. Format: biochemical. To be noted: selectivity, Factor Xa over Factor XIa. The method, boiled down: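 Glp-Pro-Arg-AMC substrate (thrombin, trypsin) or Pro-Phe-Arg-AMC/Boc-Leu-Gly-Arg-AMC (Factor Xa), diluted to 100 μM, in 20 mM Hepes pH 7.4, 150 mM NaCl, 0.02% Tween 20; enzyme diluted to 0.5 nM before addition. Two-fold serial compound dilutions; kinetic reads at 30° C. Data yield IC50 and Kon.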

A short description of data set [3]: Determination of bioavailability in a dog. The data set is classed as in vivo. To be noted: plasma, male beagle dogs, IV bolus 1 mg/kg vs oral gavage 5 mg/kg, AUC comparison. On the procedure: The following protocol was used to estimate the bioavailability of test compounds in a dog. Test compounds were formulated in vehicles compatible with intravenous and oral dosing. Test compounds were administered to male beagle dogs via an intravenous bolus at 1 mg/kg (1 mg/mL at a dose volume of 1 mL/kg) or via oral gavage at 5 mg/kg (1 mg/mL at a dose volume of 5 mL/kg). Blood samples were collected via the contralateral (to intravenous bolus) jugular vein or via other accessible vein, at various timepoints following administration out to 24 hours post dose. Plasma samples (EDTA) were obtained by centrifugation (2200×g for 10 minutes at 5° C.) and stored frozen ([…]) until analyzed for parent compound via LC/MS/MS. Pharmacokinetic parameters were estimated from the plasma concentration time data by standard non-compartmental methods utilizing standard analysis software. By comparing the area under the curve (AUC) for IV and PO administration estimates of oral bioavailability were determined.

Data set [4] can be described thus: Caco-2 cell permeability assay. The data set is classed as in vitro ADME, human. As to conditions: human, 37° C.; for Papp A→B at 60 min, 10 μM: Caco-2, apical to basolateral; for Papp B→A at 40 min, 10 μM: Caco-2, basolateral to apical. The essentials: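 Caco-2 monolayers (days 21-25 post-seeding) received 10 μM compound in HBSS-MES pH 6.5 or HBSS-HEPES pH 7.4 (1% DMSO) at 37 °C, for 60 min A-B or 40 min B-A. Donor and receiver samples were quantified by HPLC-MS/MS (SRM), and Papp and recovery were calculated.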

Chain of Factor Xa (P00742 235-488): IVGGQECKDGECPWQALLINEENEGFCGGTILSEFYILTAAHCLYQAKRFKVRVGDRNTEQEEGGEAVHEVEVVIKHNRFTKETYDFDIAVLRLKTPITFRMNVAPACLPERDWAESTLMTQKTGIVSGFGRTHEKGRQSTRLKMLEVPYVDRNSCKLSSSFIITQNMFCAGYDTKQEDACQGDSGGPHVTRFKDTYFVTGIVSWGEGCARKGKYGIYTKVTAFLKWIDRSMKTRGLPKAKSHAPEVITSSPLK
Chain of Factor Xa (P00742 41-179 partner): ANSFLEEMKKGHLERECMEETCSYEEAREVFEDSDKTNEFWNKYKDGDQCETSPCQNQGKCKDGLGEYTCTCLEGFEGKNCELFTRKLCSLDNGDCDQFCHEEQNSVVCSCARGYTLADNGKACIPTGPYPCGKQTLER
Chain of Factor XIa (P03951 388-625): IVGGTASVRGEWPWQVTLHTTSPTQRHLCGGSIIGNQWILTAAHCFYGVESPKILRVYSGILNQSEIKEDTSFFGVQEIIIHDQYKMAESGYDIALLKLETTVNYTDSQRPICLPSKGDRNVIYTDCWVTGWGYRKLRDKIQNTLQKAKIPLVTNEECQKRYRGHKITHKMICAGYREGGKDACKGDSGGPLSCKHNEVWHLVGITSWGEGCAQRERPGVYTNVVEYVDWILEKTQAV
Chain of Factor XIa (P03951 19-387 partner): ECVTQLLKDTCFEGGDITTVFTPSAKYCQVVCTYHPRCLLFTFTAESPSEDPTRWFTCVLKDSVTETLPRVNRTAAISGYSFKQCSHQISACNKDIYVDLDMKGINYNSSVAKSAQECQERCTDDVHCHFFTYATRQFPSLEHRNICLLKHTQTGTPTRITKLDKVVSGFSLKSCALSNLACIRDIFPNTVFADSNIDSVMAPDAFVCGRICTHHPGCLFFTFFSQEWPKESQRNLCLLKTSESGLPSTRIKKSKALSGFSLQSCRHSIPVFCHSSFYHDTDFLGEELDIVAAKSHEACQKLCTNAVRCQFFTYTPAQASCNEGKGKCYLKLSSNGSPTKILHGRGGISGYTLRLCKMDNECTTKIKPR

For `CC[C@@H](NC(=O)N1C(=O)[C@H](Cc2ccnc(N)c2)[C@H]1C(=O)N(C)c1nccn1C)c1ccc(C)nc1` [Compound 1-81, (2S,3R)-3-((2-aminopyridin-4-yl)methyl)-N2-(1-methyl-1H-imidazol-2-yl)-N1-((R)-1-(6-methylpyridin-3-yl)propyl)-N2-methyl-4-oxoazetidine-1,2-dicarboxamide], the IC50 in data set [1] was in the range of 10 to 100 nM. In addition, the “Ratio: FXa/FXIa” value in data set [2] is “I (“I” indicates > 500)”. Moreover, the bioavailability in data set [3] was under 10%. For the same molecule, in data set [4], the Papp A→B at 60 min, 10 μM was under 10 ×10⁻⁶ cm/s and the apparent permeability from basolateral to apical (Papp B→A) at 40 min, 10 μM is under 10 ×10⁻⁶ cm/s.
Turning to `CC[C@@H](NC(=O)N1C(=O)[C@H](Cc2cc(C)nc(N)c2)[C@H]1C(=O)N(C)c1ccn(C)n1)c1cccc(Cl)c1` [Compound 1-89, (2S,3R)-3-((2-amino-6-methylpyridin-4-yl)methyl)-N2-(1-methyl-1H-pyrazol-3-yl)-N1-((R)-1-(3-chlorophenyl)propyl)-N2-methyl-4-oxoazetidine-1,2-dicarboxamide], the IC50 in data set [1] was under 10 nM. Moreover, the “Ratio: FXa/FXIa” value in data set [2] is on record as “I (“I” indicates > 500)”. The bioavailability in data set [3] was over 30%. Further, in data set [4], the Papp A→B at 60 min, 10 μM is under 10 ×10⁻⁶ cm/s and the Papp B→A at 40 min, 10 μM lay within 11 to 30 ×10⁻⁶ cm/s.
As for `CC[C@@H](NC(=O)N1C(=O)[C@H](Cc2ccnc(N)c2)[C@H]1C(=O)N(C)c1ccn(C)n1)c1cccc(Cl)c1` [Compound 1-91, (2S,3R)-3-((2-aminopyridin-4-yl)methyl)-N2-(1-methyl-1H-pyrazol-3-yl)-N1-((R)-1-(3-chlorophenyl)propyl)-N2-methyl-4-oxoazetidine-1,2-dicarboxamide], in data set [1], the IC50 was under 10 nM. Further, the “Ratio: FXa/FXIa” value in data set [2] is on record as “H (“H” indicates 101-1000)”. This molecule also had a bioavailability in data set [3] of over 30%. Further, in data set [4], the Papp A→B at 60 min, 10 μM is under 10 ×10⁻⁶ cm/s and the Papp B→A at 40 min, 10 μM was in the range of 11 to 30 ×10⁻⁶ cm/s.
As to `CC[C@@H](NC(=O)N1C(=O)[C@H](Cc2ccnc(N)c2)[C@H]1C(=O)N(C)c1ccnn1C)c1ccccc1` [Compound 1-92, (2S,3R)-3-((2-aminopyridin-4-yl)methyl)-N2-(1-methyl 1H-pyrazol-5-yl)-N1-((R)-1-phenylpropyl)-N2-methyl-4-oxoazetidine-1,2-dicarboxamide], the IC50 in data set [1] was under 10 nM. The “Ratio: FXa/FXIa” value in data set [2] was “I (“I” indicates > 500)”. The molecule also displayed a bioavailability in data set [3] of over 30%. In data set [4], the apparent permeability from apical to basolateral (Papp A→B) at 60 min, 10 μM is under 10 ×10⁻⁶ cm/s and the Papp B→A at 40 min, 10 μM was 31 to 50 ×10⁻⁶ cm/s.

For the origin of these results see patent US11691962B2 (eXIthera Pharmaceuticals, Inc., priority 2018, dated 2023).
